For 5 compounds, Activity results are on record in ChEMBL document CHEMBL3045187, “Chemical weed control in seedbed sown onion (Allium cepa L.)” (Crop Prot, 2006).

Series [1] deals with Cyperus rotundus. Put plainly: Herbicidal activity against Cyperus rotundus assessed as total fresh weight at 7 kg/ha applied as spray before seed sowing (reference value: 23.6 MT/ha). It is filed as functional.
Series [2] deals with Chenopodiastrum murale. Put plainly: Herbicidal activity against Chenopodium murale assessed as total dry weight at 7 kg/ha applied as spray before seed sowing (reference value: 4.1 MT/ha). It is filed as functional.
For series [3], the system named is Cyperus rotundus. Nature of the series: Herbicidal activity against Cyperus rotundus assessed as total dry weight at 7 kg/ha applied as spray before seed sowing (reference value: 4.1 MT/ha). It counts as functional.
The test system of series [4] is Chenopodiastrum murale. Nature of the series: Herbicidal activity against Chenopodium murale assessed as total fresh weight at 7 kg/ha applied as spray before seed sowing (reference value: 23.6 MT/ha). It is filed as functional.
The subject of series [5] is Malva sylvestris. Put plainly: Herbicidal activity against Malva sylvestris assessed as total dry weight at 7 kg/ha applied as spray before seed sowing (reference value: 4.1 MT/ha). It is filed as functional.
For series [6], the system named is Allium cepa. Nature of the series: Phytotoxicity in Allium cepa (onion) seedling assessed as total fresh weight at 7 kg/ha applied as spray before seed sowing (reference value: 7.71 MT/ha). It is filed as organism-based. Conditions: in vivo, other.
Series [7] has as its system Malva sylvestris. Nature of the series: Herbicidal activity against Malva sylvestris assessed as total fresh weight at 7 kg/ha applied as spray before seed sowing (reference value: 23.6 MT/ha). It is filed as functional.
Series [8] relates to Malva sylvestris. Put plainly: Herbicidal activity against Malva sylvestris assessed as total dry weight at 3.75 kg/ha applied as spray before seed sowing (reference value: 4.1 MT/ha). It is filed as functional.
The subject of series [9] is Cyperus rotundus. Nature of the series: Herbicidal activity against Cyperus rotundus assessed as total fresh weight at 3.75 kg/ha applied as spray before seed sowing (reference value: 23.6 MT/ha). It is filed as functional.
Series [10] deals with Chenopodiastrum murale. Put plainly: Herbicidal activity against Chenopodium murale assessed as total fresh weight at 3.75 kg/ha applied as spray before seed sowing (reference value: 23.6 MT/ha). It is filed as functional.
Series [11] concerns Allium cepa. Put plainly: Phytotoxicity in Allium cepa (onion) seedling assessed as total fresh weight at 3.75 kg/ha applied as spray before seed sowing (reference value: 7.71 MT/ha). As to conditions: in vivo, other. It is filed as organism-based.
Series [12] concerns Cyperus rotundus. Put plainly: Herbicidal activity against Cyperus rotundus assessed as total dry weight at 3.75 kg/ha applied as spray before seed sowing (reference value: 4.1 MT/ha). It counts as functional.
The subject of series [13] is Chenopodiastrum murale. Put plainly: Herbicidal activity against Chenopodium murale assessed as total dry weight at 3.75 kg/ha applied as spray before seed sowing (reference value: 4.1 MT/ha). It counts as functional.
The test system of series [14] is Malva sylvestris. Put plainly: Herbicidal activity against Malva sylvestris assessed as total fresh weight at 3.75 kg/ha applied as spray before seed sowing (reference value: 23.6 MT/ha). It is filed as functional.
The subject of series [15] is Chenopodiastrum murale. Nature of the series: Herbicidal activity against Chenopodium murale assessed as total dry weight at 2.45 kg/ha applied as spray before seed sowing (reference value: 4.1 MT/ha). It counts as functional.
Series [16] relates to Allium cepa. Put plainly: Phytotoxicity in Allium cepa (onion) seedling assessed as total fresh weight at 2.45 kg/ha applied as spray before seed sowing (reference value: 7.71 MT/ha). It is filed as organism-based. As to conditions: in vivo, other.
In series [17] the test system is Cyperus rotundus. Nature of the series: Herbicidal activity against Cyperus rotundus assessed as total fresh weight at 2.45 kg/ha applied as spray before seed sowing (reference value: 23.6 MT/ha). It is filed as functional.
In series [18] the test system is Cyperus rotundus. Put plainly: Herbicidal activity against Cyperus rotundus assessed as total dry weight at 2.45 kg/ha applied as spray before seed sowing (reference value: 4.1 MT/ha). It counts as functional.
Series [19] has as its system Chenopodiastrum murale. Nature of the series: Herbicidal activity against Chenopodium murale assessed as total fresh weight at 2.45 kg/ha applied as spray before seed sowing (reference value: 23.6 MT/ha). It is filed as functional.
Series [20] has as its system Malva sylvestris. Nature of the series: Herbicidal activity against Malva sylvestris assessed as total dry weight at 2.45 kg/ha applied as spray before seed sowing (reference value: 4.1 MT/ha). It is filed as functional.
For series [21], the system named is Malva sylvestris. Put plainly: Herbicidal activity against Malva sylvestris assessed as total fresh weight at 2.45 kg/ha applied as spray before seed sowing (reference value: 23.6 MT/ha). It counts as functional.
Series [22] has as its system Chenopodiastrum murale. Nature of the series: Herbicidal activity against Chenopodium murale assessed as total fresh weight at 0.35 kg/ha applied as spray before seed sowing (reference value: 23.6 MT/ha). It counts as functional.
The test system of series [23] is Chenopodiastrum murale. Put plainly: Herbicidal activity against Chenopodium murale assessed as total dry weight at 0.35 kg/ha applied as spray before seed sowing (reference value: 4.1 MT/ha). It counts as functional.
Series [24] concerns Cyperus rotundus. Nature of the series: Herbicidal activity against Cyperus rotundus assessed as total fresh weight at 0.35 kg/ha applied as spray before seed sowing (reference value: 23.6 MT/ha). It counts as functional.
The subject of series [25] is Malva sylvestris. Put plainly: Herbicidal activity against Malva sylvestris assessed as total fresh weight at 0.35 kg/ha applied as spray before seed sowing (reference value: 23.6 MT/ha). It counts as functional.
Series [26] concerns Cyperus rotundus. Nature of the series: Herbicidal activity against Cyperus rotundus assessed as total dry weight at 0.35 kg/ha applied as spray before seed sowing (reference value: 4.1 MT/ha). It counts as functional.
The test system of series [27] is Allium cepa. Put plainly: Phytotoxicity in Allium cepa (onion) seedling assessed as total fresh weight at 0.35 kg/ha applied as spray before seed sowing (reference value: 7.71 MT/ha). It counts as organism-based. Conditions: in vivo, other.
For series [28], the system named is Malva sylvestris. Nature of the series: Herbicidal activity against Malva sylvestris assessed as total dry weight at 0.35 kg/ha applied as spray before seed sowing (reference value: 4.1 MT/ha). It is filed as functional.
Series [29] deals with Allium cepa. Nature of the series: Phytotoxicity in Allium cepa (onion) seedling assessed as total fresh weight at 0.75 kg/ha applied as spray during post-emergence (reference value: 7.71 MT/ha). Conditions: in vivo, other. It counts as organism-based.
Series [30] relates to Allium cepa. Nature of the series: Phytotoxicity in Allium cepa (onion) seedling assessed as total fresh weight at 0.75 kg/ha applied as spray before seed sowing (reference value: 7.71 MT/ha). It is filed as organism-based. As to conditions: in vivo, other.
Series [31] has as its system Chenopodiastrum murale. Nature of the series: Herbicidal activity against Chenopodium murale assessed as decrease in total dry weight at 0.75 kg/ha applied as spray during postemergence relative to weed-infested control. It counts as functional. More on the design: scale not given: the % may be the effect or the level left.
Series [32] concerns Malva sylvestris. Nature of the series: Herbicidal activity against Malva sylvestris assessed as total fresh weight at 0.75 kg/ha applied as spray before seed sowing (reference value: 23.6 MT/ha). It is filed as functional.
For series [33], the system named is Chenopodiastrum murale. Nature of the series: Herbicidal activity against Chenopodium murale assessed as total dry weight at 0.75 kg/ha applied as spray before seed sowing (reference value: 4.1 MT/ha). It is filed as functional.
For series [34], the system named is Chenopodiastrum murale. Nature of the series: Herbicidal activity against Chenopodium murale assessed as total fresh weight at 0.75 kg/ha applied as spray during postemergence (reference value: 23.6 MT/ha). It counts as functional.
In series [35] the test system is Malva sylvestris. Put plainly: Herbicidal activity against Malva sylvestris assessed as total dry weight at 0.75 kg/ha applied as spray before seed sowing (reference value: 4.1 MT/ha). It counts as functional.
Series [36] deals with Cyperus rotundus. Put plainly: Herbicidal activity against Cyperus rotundus assessed as total fresh weight at 0.75 kg/ha applied as spray before seed sowing (reference value: 23.6 MT/ha). It is filed as functional.
The subject of series [37] is Chenopodiastrum murale. Nature of the series: Herbicidal activity against Chenopodium murale assessed as total fresh weight at 0.75 kg/ha applied as spray before seed sowing (reference value: 23.6 MT/ha). It is filed as functional.
Series [38] relates to Cyperus rotundus. Put plainly: Herbicidal activity against Cyperus rotundus assessed as total dry weight at 0.75 kg/ha applied as spray before seed sowing (reference value: 4.1 MT/ha). It is filed as functional.
The test system of series [39] is Malva sylvestris. Nature of the series: Herbicidal activity against Malva sylvestris assessed as decrease in total dry weight at 0.75 kg/ha applied as spray during post-emergence relative to weed-infested control. It counts as functional. Further details: scale not given: the % may be the effect or the level left.
Series [40] deals with Cyperus rotundus. Nature of the series: Herbicidal activity against Cyperus rotundus assessed as decrease in total dry weight at 0.75 kg/ha applied as spray during post-emergence relative to weed-infested control. It counts as functional. More on the design: scale not given: the % may be the effect or the level left.
The test system of series [41] is Malva sylvestris. Nature of the series: Herbicidal activity against Malva sylvestris assessed as total fresh weight at 0.75 kg/ha applied as spray during post-emergence (reference value: 23.6 MT/ha). It counts as functional.
The test system of series [42] is Cyperus rotundus. Put plainly: Herbicidal activity against Cyperus rotundus assessed as total fresh weight at 0.75 kg/ha applied as spray during post-emergence (reference value: 23.6 MT/ha). It counts as functional.

As for `COC(=O)c1c(Cl)c(Cl)c(C(=O)OC)c(Cl)c1Cl` [DACTHAL], the Activity is on record as 19 MT/ha in the series with Cyperus rotundus [1]; 3.63 MT/ha with Chenopodiastrum murale [2]; 3.63 MT/ha with Cyperus rotundus [3]; 19 MT/ha in the series with Chenopodiastrum murale [4]; 3.63 MT/ha with Malva sylvestris [5]; 8.2 MT/ha in the series with Allium cepa [6]. The Activity with Malva sylvestris [7] is recorded as 19 MT/ha.
Consider `CN(C)C(=O)C(c1ccccc1)c1ccccc1` [DIPHENAMIDE], for which the Activity is 4.79 MT/ha in the series with Malva sylvestris [8]; 21.5 MT/ha in the series on Cyperus rotundus [9]; 21.5 MT/ha in the series on Chenopodiastrum murale [10]; 5.16 MT/ha in the series with Allium cepa [11]; 4.79 MT/ha in the series on Cyperus rotundus [12]; 4.79 MT/ha in the series with Chenopodiastrum murale [13]. Also, the Activity with Malva sylvestris [14] was determined as 21.5 MT/ha.
`CNC(=O)N(C)c1nc2ccccc2s1` [METHABENZTHIAZURON]: the Activity in the series with Chenopodiastrum murale [15] was determined as 2.85 MT/ha; in the series with Allium cepa [16] it was 7.18 MT/ha; with Cyperus rotundus [17], 9 MT/ha; with Cyperus rotundus [18], 2.85 MT/ha; in the series on Chenopodiastrum murale [19], 9 MT/ha; in the series with Malva sylvestris [20] it was 2.85 MT/ha. Moreover, the Activity with Malva sylvestris [21] is recorded as 9 MT/ha.
Turning to `CSc1nnc(C(C)(C)C)c(=O)n1N` [METRIBUZIN], the Activity in the series with Chenopodiastrum murale [22] came to 17.1 MT/ha; with Chenopodiastrum murale [23], 3.32 MT/ha; in the series on Cyperus rotundus [24], 17.1 MT/ha; with Malva sylvestris [25], 17.1 MT/ha; in the series with Cyperus rotundus [26] it was 3.32 MT/ha; with Allium cepa [27] it was 7.64 MT/ha. For the same compound, in the series on Malva sylvestris [28], the Activity is 3.32 MT/ha.
For the compound `CC(C)Oc1cc(-n2nc(C(C)(C)C)oc2=O)c(Cl)cc1Cl` [OXADIAZON], the Activity in the series with Allium cepa [29] is recorded as 15.69 MT/ha; with Allium cepa [30], 13.37 MT/ha; in the series on Chenopodiastrum murale [31] it was 57%; in the series with Malva sylvestris [32], 13.3 MT/ha; with Chenopodiastrum murale [33], 2.37 MT/ha; in the series on Chenopodiastrum murale [34], 10.8 MT/ha. Besides, the Activity in the series on Malva sylvestris [35] stood at 2.37 MT/ha; in the series with Cyperus rotundus [36], 13.3 MT/ha; with Chenopodiastrum murale [37], 13.3 MT/ha; in the series with Cyperus rotundus [38], 2.37 MT/ha; in the series on Malva sylvestris [39] it was 57%; in the series on Cyperus rotundus [40], 57%. The Activity in the series with Malva sylvestris [41] and in the series on Cyperus rotundus [42] was 10.8 MT/ha in each case.
